Reference: patent US20250230193A1, “CYCLIC COMPOUND HAVING SELECTIVE KRAS INHIBITORY EFFECT ON HRAS AND NRAS” (CHUGAI SEIYAKU KABUSHIKI KAISHA, priority 2022, published 2025)

Columns and labels:
[1] = molecular target: GDP-bound HRAS wild-type protein (Homo sapiens, UniProt P01112); assay: Binding to HRAS by surface plasmon resonance (SPR), Single Cycle Kinetics; conditions: SPR, GDP-bound HRAS wild-type vs GDP-bound KRAS wild-type
[2] = molecular target: GDP-bound NRAS wild-type protein (Homo sapiens, UniProt P01111); assay: Binding to NRAS by surface plasmon resonance (SPR), Single Cycle Kinetics; conditions: SPR, GDP-bound NRAS wild-type vs GDP-bound KRAS wild-type
Chain of GDP-bound NRAS wild-type protein (P01111 whole entry): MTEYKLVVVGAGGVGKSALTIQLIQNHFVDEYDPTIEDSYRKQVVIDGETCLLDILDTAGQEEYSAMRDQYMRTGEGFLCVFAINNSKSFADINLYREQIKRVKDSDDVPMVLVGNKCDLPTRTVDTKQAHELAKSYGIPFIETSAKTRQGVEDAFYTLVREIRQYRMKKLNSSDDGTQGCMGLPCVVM

Chain of GDP-bound HRAS wild-type protein (P01112 whole entry): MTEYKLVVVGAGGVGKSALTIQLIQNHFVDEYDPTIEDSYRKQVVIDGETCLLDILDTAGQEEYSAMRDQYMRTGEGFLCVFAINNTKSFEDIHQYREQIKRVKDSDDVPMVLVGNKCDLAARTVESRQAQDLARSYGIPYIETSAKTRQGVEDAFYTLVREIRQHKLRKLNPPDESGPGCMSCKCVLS

| SMILES | HRAS/KRAS (ratio of KD value with respect to HRAS to KD value with respect to KRAS) [1] | NRAS/KRAS (ratio of KD value with respect to NRAS to KD value with respect to KRAS) [2] |
| --- | --- | --- |
| CCCOC[C@H]1C(=O)N[C@@H]([C@@H](C)CC)C(=O)N(C)CC(=O)N(C)[C@H]2C/C=C\CCN(C2=O)[C@@H](CC2CCCCC2)C(=O)N(C)CC(=O)N[C@@H](CCc2cc(F)c(C(F)(F)F)c(F)c2)C(=O)N2C[C@H](OCC)C[C@H]2C(=O)NC2(CC(C)(C)C2)C(=O)N(C)[C@@H](C(CC)CC)C(=O)N(C)[C@H](C(=O)N(C)C)CC(=O)N1C [PP2501] | A (a compound having 10 or more and less than 20 is denoted as A) | AA (a compound having 20 or more is denoted as AA) |
| CC[C@H](C)[C@@H]1NC(=O)[C@H](COC)N(C)C(=O)C[C@@H](C(=O)N(C)C)N(C)C(=O)[C@H](C2CCCC2)N(C)C(=O)C2(CC(C)(C)C2)NC(=O)[C@@H]2C[C@H](C)CN2C(=O)[C@H](CCc2ccc(C(F)(F)F)c(Cl)c2)NC(=O)CN(C)C(=O)[C@H](Cc2ccc(C)cc2)N2CC/C=C\C[C@@H](C2=O)N(C)C(=O)CN(C)C1=O [PP2502] | A (a compound having 10 or more and less than 20 is denoted as A) | A (a compound having 10 or more and less than 20 is denoted as A) |
| CCOC[C@H]1C(=O)N[C@@H]([C@@H](C)CC)C(=O)N(C)CC(=O)N(C)[C@H]2C/C=C\CCN(C2=O)[C@@H](Cc2ccc(C)cc2)C(=O)N(C)CC(=O)N[C@@H](CCc2ccc(C(F)(F)F)c(OC)c2)C(=O)N2C[C@@H](C)C[C@H]2C(=O)NC2(CC(C)(C)C2)C(=O)N(C)[C@@H](C2CCCC2)C(=O)N(C)[C@H](C(=O)N(C)C)CC(=O)N1C [PP2505] | B (a compound having 3 or more and less than 10 is denoted as B) | A (a compound having 10 or more and less than 20 is denoted as A) |
| CC[C@H](C)[C@@H]1NC(=O)[C@H](COC)N(C)C(=O)C[C@@H](C(=O)N(C)CC)N(C)C(=O)[C@H](C2CCCC2)N(C)C(=O)C2(CC(C)(C)C2)NC(=O)[C@@H]2C[C@H](C)CN2C(=O)[C@H](CCc2ccc(C(F)(F)F)c(Cl)c2)NC(=O)CN(C)C(=O)[C@H](Cc2ccc(C)cc2)N2CC/C=C\C[C@@H](C2=O)N(C)C(=O)CN(C)C1=O [PP2506] | A (a compound having 10 or more and less than 20 is denoted as A) | A (a compound having 10 or more and less than 20 is denoted as A) |
| CCO[C@@H]1C[C@H]2C(=O)NC3(CC(C)(C)C3)C(=O)N(C)[C@@H](C3CCCC3)C(=O)N(C)[C@H](C(=O)N(C)CC)CC(=O)N(C)[C@@H](COC)C(=O)N[C@@H]([C@@H](C)CC)C(=O)N(C)CC(=O)N(C)[C@H]3C/C=C\CCN(C3=O)[C@@H](Cc3ccc(C)cc3)C(=O)N(C)CC(=O)N[C@@H](CCc3ccc(C(F)(F)F)c(Cl)c3)C(=O)N2C1 [PP2507] | A (a compound having 10 or more and less than 20 is denoted as A) | AA (a compound having 20 or more is denoted as AA) |
| CCC[C@H]1C(=O)N[C@@H](CC(C)C)C(=O)N(C2CC2)CC(=O)N(C)[C@H]2C/C=C\CCN(C2=O)[C@@H](Cc2ccc(C)cc2)C(=O)N(C)CC(=O)N[C@@H](CCc2cc(F)c(C(F)(F)F)c(F)c2)C(=O)N2C[C@H](OCC)C[C@H]2C(=O)NC2(CC(C)(C)C2)C(=O)N(C)[C@@H](C2CCCC2)C(=O)N(C)[C@H](C(=O)N(C)C)CC(=O)N1C [PP2508] | B (a compound having 3 or more and less than 10 is denoted as B) | A (a compound having 10 or more and less than 20 is denoted as A) |
| CCC[C@H]1C(=O)N[C@@H](CC(C)C)C(=O)N(C2CC2)CC(=O)N(C)[C@H]2C/C=C\CCN(C2=O)[C@@H](Cc2ccc(C)cc2)C(=O)N(C)CC(=O)N[C@@H](CCc2ccc(C(F)(F)F)c(OC)c2)C(=O)N2C[C@H](OCC)C[C@H]2C(=O)NC2(CC(C)(C)C2)C(=O)N(C)[C@@H](C2CCCC2)C(=O)N(C)[C@H](C(=O)N(C)C)CC(=O)N1C [PP2510] | B (a compound having 3 or more and less than 10 is denoted as B) | A (a compound having 10 or more and less than 20 is denoted as A) |
| CC[C@H](C)[C@@H]1NC(=O)[C@H](COC)N(C)C(=O)C[C@@H](C(=O)N(C)C)N(C)C(=O)[C@H](C2CCCC2)N(C)C(=O)C2(CC(C)(C)C2)NC(=O)[C@@H]2C[C@@H](OC(C)C)CN2C(=O)[C@H](CCc2cc(F)c(C(F)(F)F)c(F)c2)NC(=O)CN(C)C(=O)[C@H](CC2CCCCC2)N2CC/C=C\C[C@@H](C2=O)N(C)C(=O)CN(C2CC2)C1=O [PP2511] | A (a compound having 10 or more and less than 20 is denoted as A) | A (a compound having 10 or more and less than 20 is denoted as A) |
| C#CCN1CC(=O)N(C)[C@H]2C/C=C\CCN(C2=O)[C@@H](Cc2ccc(C)cc2)C(=O)N(C)CC(=O)N[C@@H](CCc2cc(F)c(C(F)(F)F)c(F)c2)C(=O)N2C[C@H](OCC)C[C@H]2C(=O)NC2(CC(C)(C)C2)C(=O)N(C)[C@@H](C2CCCC2)C(=O)N(C)[C@H](C(=O)N(C)C)CC(=O)N(C)[C@@H](CCC)C(=O)N[C@@H](CC(C)C)C1=O [PP2512] | A (a compound having 10 or more and less than 20 is denoted as A) | A (a compound having 10 or more and less than 20 is denoted as A) |
| CC[C@H](C)[C@@H]1NC(=O)[C@H](COC)N(C)C(=O)C[C@@H](C(=O)N(C)C)N(C)C(=O)[C@H](C2CCCC2)N(C)C(=O)C2(CC(C)(C)C2)NC(=O)[C@@H]2C[C@@H](OC(C)C)CN2C(=O)[C@H](CCc2ccc(Cl)c(Cl)c2)NC(=O)CN(C)C(=O)[C@H](CC2CCCCC2)N2CC/C=C\C[C@@H](C2=O)N(C)C(=O)CN(C2CC2)C1=O [PP2513] | A (a compound having 10 or more and less than 20 is denoted as A) | A (a compound having 10 or more and less than 20 is denoted as A) |
| C#CCN1CC(=O)N(C)[C@H]2C/C=C\CCN(C2=O)[C@@H](Cc2ccc(C)cc2)C(=O)N(C)CC(=O)N[C@@H](CCc2ccc(C(F)(F)F)c(OC)c2)C(=O)N2C[C@H](OCC)C[C@H]2C(=O)NC2(CC(C)(C)C2)C(=O)N(C)[C@@H](C2CCCC2)C(=O)N(C)[C@H](C(=O)N(C)C)CC(=O)N(C)[C@@H](CCC)C(=O)N[C@@H](CC(C)C)C1=O [PP2514] | B (a compound having 3 or more and less than 10 is denoted as B) | A (a compound having 10 or more and less than 20 is denoted as A) |
| CCC(CC)[C@H]1C(=O)N(C)[C@H](C(=O)N(C)C)CC(=O)N(C)[C@@H](COC)C(=O)N[C@@H]([C@@H](C)CC)C(=O)N(C2CC2)CC(=O)N(C)[C@H]2C/C=C\CCN(C2=O)[C@@H](CC2CCCCC2)C(=O)N(C)CC(=O)N[C@@H](CCc2cc(F)c(C(F)(F)F)c(F)c2)C(=O)N2C[C@H](OC(C)C)C[C@H]2C(=O)NC2(CC(C)(C)C2)C(=O)N1C [PP2515] | A (a compound having 10 or more and less than 20 is denoted as A) | A (a compound having 10 or more and less than 20 is denoted as A) |
| CCC[C@H]1C(=O)N[C@@H](CC(C)C)C(=O)N(CC)CC(=O)N(C)[C@H]2C/C=C\CCN(C2=O)[C@@H](Cc2ccc(C)cc2)C(=O)N(C)CC(=O)N[C@@H](CCc2cc(F)c(C(F)(F)F)c(F)c2)C(=O)N2C[C@H](OCC)C[C@H]2C(=O)NC2(CC(C)(C)C2)C(=O)N(C)[C@@H](C2CCCC2)C(=O)N(C)[C@H](C(=O)N(C)C)CC(=O)N1C [PP2516] | B (a compound having 3 or more and less than 10 is denoted as B) | A (a compound having 10 or more and less than 20 is denoted as A) |
| CCC[C@H]1C(=O)N[C@@H](CC(C)C)C(=O)N(CC)CC(=O)N(C)[C@H]2C/C=C\CCN(C2=O)[C@@H](Cc2ccc(C)cc2)C(=O)N(C)CC(=O)N[C@@H](CCc2ccc(C(F)(F)F)c(OC)c2)C(=O)N2C[C@H](OCC)C[C@H]2C(=O)NC2(CC(C)(C)C2)C(=O)N(C)[C@@H](C2CCCC2)C(=O)N(C)[C@H](C(=O)N(C)C)CC(=O)N1C [PP2518] | A (a compound having 10 or more and less than 20 is denoted as A) | A (a compound having 10 or more and less than 20 is denoted as A) |
| CCC[C@H]1C(=O)N[C@@H](CC(C)C)C(=O)N(CCOC)CC(=O)N(C)[C@H]2C/C=C\CCN(C2=O)[C@@H](Cc2ccc(C)cc2)C(=O)N(C)CC(=O)N[C@@H](CCc2cc(F)c(C(F)(F)F)c(F)c2)C(=O)N2C[C@H](OCC)C[C@H]2C(=O)NC2(CC(C)(C)C2)C(=O)N(C)[C@@H](C2CCCC2)C(=O)N(C)[C@H](C(=O)N(C)C)CC(=O)N1C [PP2520] | A (a compound having 10 or more and less than 20 is denoted as A) | A (a compound having 10 or more and less than 20 is denoted as A) |
| CCC[C@H]1C(=O)N[C@@H]([C@@H](C)CC)C(=O)N(C2CC2)CC(=O)N(C)[C@H]2C/C=C\CCN(C2=O)[C@@H](CC2CCC(F)(F)CC2)C(=O)N(C)CC(=O)N[C@@H](CCc2ccc(Cl)c(Cl)c2)C(=O)N2C[C@H](OC(C)C)C[C@H]2C(=O)NC2(CC(C)(C)C2)C(=O)N(C)[C@@H](C2CCCC2)C(=O)N(C)[C@H](C(=O)N(C)C)CC(=O)N1C [PP2521] | A (a compound having 10 or more and less than 20 is denoted as A) | A (a compound having 10 or more and less than 20 is denoted as A) |
